PubChem BioAssay (NCI)
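Grown in 96-well plates, cells were treated for 48 hours with each compound at five concentrations. Insufficient inhibition: endpoint recorded as highest concentration tested. GI50 is the concentration that inhibits growth by half. TGI is the concentration that stops growth completely.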

Key:
Test in all cases: NCI anticancer screen, dose series, 48 h
CAKI-1 renal = system: CAKI-1 renal
CCRF-CEM leukemia = system: CCRF-CEM leukemia
HCC-2998 colon = system: HCC-2998 colon
HL-60(TB) leukemia = system: HL-60(TB) leukemia
HOP-62 NSCLC = system: HOP-62 NSCLC
HS 578T breast = system: HS 578T breast
HT29 colon = system: HT29 colon
KM12 colon = system: KM12 colon
NCI-H23 lung = system: NCI-H23 lung
NCI-H522 lung = system: NCI-H522 lung

Compound	GI50 (CAKI-1 renal)	TGI (CAKI-1 renal)	GI50 (CCRF-CEM leukemia)	TGI (CCRF-CEM leukemia)	GI50 (HCC-2998 colon)	TGI (HCC-2998 colon)	GI50 (HL-60(TB) leukemia)	TGI (HL-60(TB) leukemia)	GI50 (HOP-62 NSCLC)	TGI (HOP-62 NSCLC)	GI50 (HS 578T breast)	TGI (HS 578T breast)	GI50 (HT29 colon)	TGI (HT29 colon)	GI50 (KM12 colon)	TGI (KM12 colon)	GI50 (NCI-H23 lung)	TGI (NCI-H23 lung)	GI50 (NCI-H522 lung)	TGI (NCI-H522 lung)
O=C(Nc1ccc(-n2cc(-c3ccncc3)c(-c3ccc(O)c(Cl)c3)n2)cc1)Nc1cccc(Cl)c1Cl	> 32.5 µM	> 32.5 µM	2.47 µM	> 32.5 µM	18.9 µM	> 32.5 µM	7.49 µM	> 32.5 µM	10.6 µM	> 32.5 µM	2.84 µM	26.5 µM	3.87 µM	10.4 µM	5.95 µM	> 32.5 µM	14.6 µM	> 32.5 µM	4.03 µM	> 32.5 µM
O=C1CCCc2cc3c(cc21)CC1(C3)Cc2ccc3c(c2C1)C(=O)CCC3 (stereo unspecified)	–	> 100 µM	–	58.8 µM	–	> 100 µM	–	27.7 µM	–	> 100 µM	–	> 100 µM	–	> 100 µM	–	37.9 µM	–	> 100 µM	–	> 100 µM
COc1cc(CC(C)N)ccc1O (stereo unspecified)	–	> 100 µM	–	> 31.6 µM	–	> 100 µM	–	> 100 µM	–	> 100 µM	–	> 100 µM	–	> 100 µM	–	> 100 µM	–	> 100 µM	–	> 100 µM
O=C(O)c1c2c(cc3c1CC1(Cc4ccccc4C1=O)C3)CCC2 (stereo unspecified)	–	> 100 µM	–	33.9 µM	–	13.4 µM	–	14.9 µM	–	> 100 µM	–	> 100 µM	–	> 69.7 µM	–	> 100 µM	–	> 100 µM	–	64.5 µM
Cc1cn2c(C)csc2c1P(=O)(OC(C)C)OC(C)C	–	> 100 µM	–	> 100 µM	–	> 100 µM	–	> 100 µM	–	> 100 µM	–	> 100 µM	–	> 100 µM	–	> 100 µM	–	> 100 µM	–	> 100 µM
Cc1c2ccncc2c(C)c2c1[nH]c1ccccc12	–	3.81 µM	–	4.44 µM	–	4.87 µM	–	6.78 µM	–	3.13 µM	1.37 µM	5.45 µM	–	3.88 µM	–	2.36 µM	–	2.58 µM	–	2.93 µM
N#CC(=N)c1ncn(-c2ccccc2N)c1N	–	> 100 µM	–	> 100 µM	–	> 100 µM	–	> 100 µM	–	> 100 µM	–	> 100 µM	–	> 100 µM	–	> 100 µM	–	> 100 µM	–	> 100 µM
COP(=O)(OC)C12CCOCCN1c1ccccc1C2=O (stereo unspecified)	–	> 100 µM	–	> 100 µM	–	> 100 µM	–	> 100 µM	–	> 100 µM	–	> 100 µM	–	> 100 µM	–	> 100 µM	–	> 100 µM	–	> 100 µM
